Results as given in patent publication US20130310352A1, “DEXAMETHASONE COMBINATION THERAPY” (priority 2010, published 2013).

How the values were obtained:
[1] = system: MM cell lines ARP1, MM.1S and MM.1R; assay: Apoptosis in coculture with BMSCs; type: cell-based, human; details: 10 μM compound A, 24 hours, BMSC coculture
Method: For this purpose, BMSCs isolated from MM patient were cocultured with MM cell lines ARP1, MM.1S and MM.1R. The cells were treated with or without 10 μM of compound A for 24 hours. As a positive control, MM.1S cells were cocultured with or without BMSC and treated with or without 40 μg/ml of dexamethasone for 24 hours. After treatment, the MM cells were identified as CD138+ cells by APC-CD138 staining.
MM cell lines ARP1, MM.1S and MM.1R were cultured with 10 μM compound A for 3 days. rhIL-6 were added to final concentration of 5 ng/ml. As a positive control, MM.1S cells were treated with 40 μg/ml dexamethasone in the presence of 5 ng/ml of rhIL6 for the same time. Cells apoptosis rate was measured by annexin V staining. (B). Same MM cells were co-cultured with or without MM BMSC, and treated with 10 μM of compound A for 1 day. As a positive control, MM.1S cells were cocultured with or without BMSC and treated with 40 μg/ml dexamethasone for 1 day. CD138+ MM cells apoptosis rate was measured by Annexin V staining.

U266 = assay: Annexin V apoptosis assay; type: cell-based, human
Method: Apoptotic cells were determined as Annexin V positive cells. […] Compound A induced MM cells apoptosis were measured as described in Materials and Methods.

[2] = system: p27 (Kip1) and cyclin D1 in MM cells; assay: Immunoblotting, cell cycle regulators; type: cell-based, human; details: 10 μM compound A
Method: (§1) MM cell lines ARP1, ARK, MM.1S, MM.1R and U266 were maintained in RPMI-1640 medium supplemented with 10% fetal bovine serum, 100 U/ml penicillin and 100 μg/ml streptomycin at 37° C. and 5% CO2 Primary MM cells and MM BMSCs were isolated from bone marrow aspirates of myeloma patients. PBMCs were obtained from healthy volunteers. The study was approved by the Institutional Review Board at The University of Texas M.D. Anderson Cancer Center. Anti-caspase-3, caspase-9, PARP, Bim, XIAP, cyclin D1, pp 70S6K (Thr389) and p27(Kip1) antibodies were purchased from Cell Signaling. Anti-bcl-2, Bc1-XL, Akt, pAkt (Thr 308), pAkt (Ser 473), p70S6K and β-actin antibodies were purchased from Santa Cruz. Compound A was dissolved in DMSO at 10 mM as stock solution. Dexamethasone and Propidium iodide (PI) were purchased from Sigma-Aldrich. Recombinant human IL6 was purchased from R&D Systems. FITC conjugated Annexin V was obtained from Invitrogen.
(A). […] Compound A induced activation and cleavage of caspase-3, caspase-9 and PARP is shown. (B). Same MM cells treated with 10 μM compound A were lysed for western blotting. (C) RP1 cells were treated with 10 μM compound A for 1, 6, 12 and 24 hours.

[3] = system: MM cell lines ARP1, ARK, MM.1S, MM.1R and U266; assay: Annexin V apoptosis assay, MM cell lines; type: cell-based, human
Method: Briefly, MM cells were cultured in 24-well plates and treated with 0 to 1 mM final concentrations of compound A for 24 or 72 hours. The cells were washed twice with cold PBS and resuspended in Annexin V binding buffer (Invitrogen). MM cells were stained with FITC-conjugated Annexin V and propidium iodide (PI) for 15 min at room temperature. Apoptotic cells were determined as Annexin V positive cells.
To evaluate the effect of compound A on myeloma cells, MM cell lines ARP1, ARK, MM.1S, MM.1R and U266 were treated with different doses of compound A for 24 hours or 72 hours. Compound A induced MM cells apoptosis were measured as described in Materials and Methods.
Five MM cell lines ARP1, ARK, MM.1S, MM.1R and U266 were cultured in the presence of 0 to 1 mM compound A. Cells were harvested after 1 day or 3 days of treatment. Compound A induced MM cell apoptosis were measured by Annexin V staining as described in Materials and Methods. […] Same MM cell lines were treated with 0 to 1 mM compound A for 1 or 3 days. […] Representative histograms of primary MM cells treated with compound A. (D). […] Cells were treated with different doses of compound A for 1 day.

ARP1 cells = assay: Established MM model in SCID mice; type: in vivo; details: 5 μmol per kg per day intraperitoneal, versus PBS control
Method: Six to eight week old female SCID mice were housed and monitored in MD. Anderson Cancer Center animal research facility. All experimental procedures and protocols had been approved by the Institutional Animal Care and Use Committee at The University of Texas M.D. Anderson Cancer Center. SCID mice were subcutaneously inoculated in the right flank with 1 million ARP1 cells suspended in 50 μl PBS. After palpable tumor developed (tumor diameters ≧5 mm), mice were treated with daily intraperitoneal injection of PBS or compound A (5 μmol per kg per day). Tumor sizes were measured every 5 days, and blood samples were collected with the same period. Tumor burdens were evaluated by measuring tumor size and detecting circulating human kappa chain.
Levels of human kappa chain in mice serum were measured by a quantitative ELISA (Bethyl Laboratories Inc) followed the vendor's protocol.
To examine compound A anti-MM effects in vivo, human MM model in SCID mice were established as described in Materials and Methods. When palpable tumors developed (≧5 mm diameters), mice (10 per group) received intraperitoneal injection of compound A (5 μmol per kg per day) or vehicle control PBS daily.
SCID mice were inoculated subcutaneously in the right flank with 1×10^6 ARP1 cells. Three to 4 weeks later when palpable tumors (≧5 mm in diameter) developed, mice (10 per group) were treated with intraperitoneal injections of PBS or compound A (100 nmol per mouse per day) daily. Tumor burdens were measured as (A) tumor volumes and (B) levels of circulating human kappa china in SCID mice sera detected by ELSA, and (C) survival of tumor-bearing mice.

[4] = system: normal PBMCs from healthy volunteers; assay: Apoptosis of normal PBMCs; type: cell-based, human; details: 24 hours
Method: as §1
Apoptotic cells were determined as Annexin V positive cells.
To examine whether compound A induces normal PBMCs apoptosis, normal PBMCs from different healthy volunteers were incubated with 0 to 1 mM compound A for 24 hours. Cells apoptosis rate were measured as described above. […] Thus, these findings indicate that compound A has low cytotoxicity toward resting PBMCs.
(A). Five MM cell lines ARP1, ARK, MM.1S, MM.1R and U266 were cultured in the presence of 0 to 1 mM compound A. Cells were harvested after 1 day or 3 days of treatment. Compound A induced MM cell apoptosis were measured by Annexin V staining as described in Materials and Methods. (B). Same MM cell lines were treated with 0 to 1 mM compound A for 1 or 3 days. Cell growths were assessed by MTS assay. (C). Representative histograms of primary MM cells treated with compound A. (D). Data from 3 patients showing a dose-dependent induction of apoptosis in freshly isolated primary MM cells. Cells were treated with different doses of compound A for 1 day. (E). PBMCs isolated from 3 healthy volunteers were treated with compound A for 1 day.

[5] = system: CD138− stromal cells (BMSCs); assay: Cytotoxicity toward stromal cells in primary MM coculture; type: cell-based, human; details: 0 to 1 mM, 24 hours, versus primary MM cells
Method: MM cell lines ARP1, ARK, MM.1S, MM.1R and U266 were maintained in RPMI-1640 medium supplemented with 10% fetal bovine serum, 100 U/ml penicillin and 100 μg/ml streptomycin at 37° C. and 5% CO2 Primary MM cells and MM BMSCs were isolated from bone marrow aspirates of myeloma patients. PBMCs were obtained from healthy volunteers. […] Compound A was dissolved in DMSO at 10 mM as stock solution. […] FITC conjugated Annexin V was obtained from Invitrogen.
Compound A-induced cell apoptosis was detected by Annexin V binding assay as previously described (Zheng Y, Cai Z, Wang S, et al. Macrophages are an abundant component of myeloma microenvironment and protect myeloma cells from chemotherapy drug-induced apoptosis. Blood. 2009; 114 (17):3625-3628). Briefly, MM cells were cultured in 24-well plates and treated with 0 to 1 mM final concentrations of compound A for 24 or 72 hours. The cells were washed twice with cold PBS and resuspended in Annexin V binding buffer (Invitrogen). MM cells were stained with FITC-conjugated Annexin V and propidium iodide (PI) for 15 min at room temperature. Apoptotic cells were determined as Annexin V positive cells.
To evaluate compound A function in primary MM cells, the study was extended to CD138+ primary MM cells freshly isolated from myeloma patients. […]

## Nc1cc(C(F)(F)F)c(-c2cc(N3CCOCC3)nc(N3CCOCC3)n2)cn1 [compound A, 5-(2,6-di-morpholin-4-yl-pyrimidin-4-yl)-4-trifluoromethyl-pyridin-2-ylamine]
[1]
  effect of BMSCs on compound A induced MM cell apoptosis: did not protect
U266
  sensitivity to compound A induced apoptosis compared to other MM cell lines: less sensitive
[2]
  cyclin D1 expression: down-regulated
  p27 (Kip1) protein expression: up-regulated
[3]; 0 to 1 mM, 24 hours or 72 hours, Annexin V
  MM cells apoptosis: in both a dose dependent and a time dependent manner
[3]; 24 hours, P<0.05 compared with control
  concentration inducing significant apoptosis in all tested MM cell lines: ≥ 10 µM
ARP1 cells
  survival of tumor-bearing mice: significantly prolonged
ARP1 cells; P<0.05
  tumor burden measured by tumor volume: significantly smaller tumor burdens
ARP1 cells; P<0.05, ELISA
  tumor burden measured by level of circulating human kappa chain: significantly smaller tumor burdens
[4]; 0 to 1 mM
  toxicity toward normal PBMCs: comparably low toxicity
[4]; 10 μM
  PBMC apoptosis: less than 40%
[4]; 100 μM
  PBMC apoptosis: less than 40%
[5]
  cytotoxicity toward CD138− stromal cells: significantly lower cytotoxicity
